What was measured:
[1] = tested on: zebrafish neuromast hair cells; test: Zebrafish cisplatin ototoxicity, neuromast hair cell count; format: in vivo
adult FVB mice = test: Mouse model of acute noise-induced hearing loss (ABR, DPOAE, synaptic ribbon counts); settings: no noise trauma; vs saline + noise and Afatinib + noise groups
Source text: Subcutaneous needle electrodes were inserted behind the pinna (inverting), vertex of the skull (non-inverting) and base of the tail (ground). Tone bursts of 5 ms duration with 0.5 ms cosine-squared envelopes delivered at a rate of 21 stimuli per second with alternating polarity were generated using BioSigRZ software and RZ6 multi I/O processor system (Tucker-Davis Technologies, FL). Stimuli were presented as open field via a speaker (MF1; TDT, FL) placed 10 cm in front of the pinna of the animal. […] Stimulus intensity was decreased in 5 dB increments, starting from 100 db SPL to 0 dB SPL. […] Before the start of every session, stimulus presenting speaker (MF1) was calibrated with a ¼″ microphone (PCB-378C10; PCB Piezotronics, NY) that was also placed 10 cm in front of the speaker.
Another group of mice were administered saline. […] ABR and DPOAE thresholds were recorded prior, 7 days, or 14 days post noise exposure.
These groups of mice were additionally tested for DPOAE threshold.

[2] = tested on: EGFR downstream signaling pathways (AKT and MAPK); test: Western blotting of EGFR downstream kinases in organ of Corti after transtympanic injection; format: in vivo, mouse; settings: middle ear trans tympanic injection, 20 mg/ml; P28 FVB mice
Method: […]. […] Quarter 2 in the flow plot presents cells that are positive for EGFR. (B) P28 FVB mice were injected transtympanically with DMSO or 20 mg/ml of AG1478. Western blotting was performed on pooled organs of Corti to detect the phosphorylation of EGFR downstream kinases. (C) Zebrafish not injected or injected with 2 ng of scrambled or EGF ligand (EGFL) specific morpholinos (Gene Tools). […]. Quantification of the HCs was performed in SO3, O1 and O2 neuromasts. P<0.0001 versus the corresponding control (One-way ANOVA). […] (D) PCR from scrambled and EGFL morphants.
Now referring to FIGS. 2A-D, to determine whether functional EGFR is expressed in the adult cochlea, flow cytometry was used to identify epithelial cells that express EGFR protein in the adult cochlea (FIG. 2A). In P28 FVB mice, excluding dead cells and those with autofluorescence, we detected 1140±88 EGFR+; EpCAM+ (an epithelial cell marker) cells from one cochlea (Mean±SEM, n=4).

O=C(CCCCCCC(=O)Nc1ccccc1)NO [Vorinostat]
protection against CIHL ([1]; doses of 0.002, 0.0183 and 0.165 μM, 1 hour pre-incubation, then 400 µM cisplatin for 4 hours): showed protection against CIHL
Cisplatin damage in HCs at SO3 and O1-2 neuromasts ([1]; pretreated with various doses): significantly reduced Cisplatin damage

CN(C)C/C=C/C(=O)Nc1cc2c(Nc3ccc(F)c(Cl)c3)ncnc2cc1O[C@H]1CCOC1 [Afatinib]
DPOAE threshold, Afatinib without noise trauma (adult FVB mice): reduced DPOAE threshold at all f2 frequencies

COc1cc2ncnc(Nc3cccc(Cl)c3)c2cc1OC [AG1478]
EGFR downstream signaling (AKT and MAPK) in the organ of Corti [2]: significantly suppressed

From patent publication US20240350492A1, “Methods for the Prevention and Treatment of Hearing Loss” (Ting Therapeutics LLC, priority 2020, published 2024)
